What all share (assay type): cell-based, human
One assay relates to MCF-7. Kind of assay: MTT cytotoxicity assay. As to conditions: exposed for 48 h. The protocol:
Human cancer cell lines HepG2, SGC-7901, HCT-116, A549, NCI-H1299 and MCF-7 as well as normal liver cell line L02 were purchased from the Cell Bank of Shanghai Institute of Cell Biology. Among them, MCF-7, HepG2 cells were cultured at 37 °C in 5% CO2 with DMEM supplemented with 10% fetal bovine serum (FBS) (Hyclone, Lifescience, USA) and 1% penicillin/streptomycin (Beyotime, Nantong, China), while HCT-116, SGC-7901, A549, NCI-H1299 and L02 cells were cultured at 37 °C in 5% CO2 with RPMI-1640 supplemented with 10% FBS and 1% penicillin/streptomycin. Cells were passed every 2 days and restarted from frozen stocks upon reaching pass number 20.
In vitro cytotoxicity of the platinum compounds against human hepatocellular carcinoma (HepG-2), gastric carcinoma (SGC-7901), non-small-cell lung cancer (A549), and colorectal cancer (HCT-116) cell lines were measured by the MTT assays. Briefly, the cells were seeded in 96-well cultured plates at a density of 5000 cells/well. After overnight incubation (16 h), the cells were treated with the platinum complexes. […] The cell viability was evaluated by measurement of the absorbance at 490 nm, using an Absorbance Reader (BioRad). […] The reading values were converted to the percentage of control (% cell survival). Cytotoxic effects were expressed as IC50 values.

Another assay concerns MDC1/Aprataxin. As to the kind of experiment: Immunostaining of DSB repair proteins. As to conditions: A549, 10 μM, 24 h. The text has this:
The serine 139-phosphorylated form of chromatin-associated histone H2AX, namely γ-H2AX, is a key marker of cellular response to DDR, particularly DSBs. […] Obviously, pre-treatment of NAC could considerably alleviate the DDR triggered by complex 3 (Figure 5B). Therefore, we came to a conclusion that complex 3 caused DDR especially DSBs in A549 cells, which might happen after the increased level of intracellular ROS. In order to reveal the mechanisms underlying the enhanced DNA damage, complex 3 was studied to learn whether it could reduce the activation of DNA repair response including the co-localization of DSB repair protein MDC1/Aprataxin within nucleus. […] In order to reveal the mechanisms underlying DNA damage, complex 3 was studied to detect whether it could suppress the activation of DNA single strand break repair via the phosphorylation of SSB repair mediator/adaptor proteins XRCC1 within nucleus.
For assessment of DSBs repair kinetics we detected the total nuclear volume for an average of 50–60 nuclei per time points and cell type. Briefly, A549 cells were grown to confluence in 35 mm petri-dishes with 0.17 mm glass bottom. […] Non-specific binding was blocked by incubation with 5% FCS/PBS/0.1% Triton X-100 for 1 h at RT. […] Numbers of γH2AX foci were counted in 50–60 nuclei and plotted over time as previously described.

The next assay deals with LC3-II. As to the kind of experiment: Western blot of LC3-II. The protocol: The role of complex 3-induced autophagy in cell death was further analyzed (Figure 6). When A549 cancer cells were treated with complex 3 of 10 μM, the protein expression of LC3-II was increased (Figure 6A). […] Treatment with complex 3 for 24 h caused a 4.5-folds increase in cells undergoing autophagy (Figure 6C). […] Moreover, Bax and Bcl-2 expressions were measured by western blot analysis of whole cell lysates.
To investigate the role of ROS in complex 3-induced cell death, the level of intracellular H2O2 was measured. […] Exposure of A549 cells to NAC reduced levels of LC3-II from 2.3- to 1.5-folds (Figure 8B). […] In parallel, the complex 3-induced increase ratio of Bax/Bcl-2 was suppressed by NAC (Figure 8E).
Lysates were centrifuged at 12,000 g for 0.5 h at 4°C. The concentrations of total proteins were measured using the BCA assay method with Varioskan spectrofluorometer and spectrophotometer (Thermo, Waltham, MA) at 562 nm. Protein (20–100 μg) prepared from the indicated cells was loaded per lane and electrophoresed in 8% or 10% sodium dodecyl sulfate polyacrylamide gel electrophoresis (SDS-PAGE), and then transferred onto polyvinylidene difluoride (PVDF) Immobilon-P membrane (Bio-Rad, USA) using a transblot apparatus (Bio-Rad, USA). The membranes were blocked with 5% (w/v) non-fat milk at 0.5 h at 37°C, followed by overnight incubation at 4°C with primary antibodies diluted in PBST. After washing with PBST, the membranes were incubated for 1 h with an IRDye´800 conjugated secondary antibody diluted 1:20000 in PBST, and the labeled proteins were detected with an Odyssey Scanning System (Li-COR., Lincoln, Nebraska, USA).

Assay [1] concerns A549 and NCI-H1299 cancer cells. Kind of assay: Colony formation assay. As to conditions: A549 and NCI-H1299, 7 days. The protocol:
Cells were trypsinized and plated at a density of 500 perplate. […] Cells were then fixed with 3% paraformaldehyde, stained with crystal violet and imaged with a light microscope. The experiment was performed in triplicate. The number of colonies, defined as containing > 50 cells, was counted.

The subject of another assay is A549 cancer cells. As to the kind of experiment: Intracellular GSH measurement. As to conditions: A549, 10 μM, 4 h. The protocol:
After 4 h, medium was removed and dishes were rinsed three times with cold PBS. The cells were harvested and cell numbers were counted. Then, intracellular GSH levels were measured using a GSH test kit (KeyGen KGT006). A549 and NCI-H1299 cancer cells without treatment were used as control groups.

Take `CC(C)C[NH+]1[C@@H]2CCCC[C@H]2[NH+](CC(C)C)[Pt-2]12[O]C(=O)CC(=O)[O]2` (stereo partly shown) [Complex 3]: in the assay with MCF-7, the IC50 turned out to be 32.5 ± 2.9 µM. For the same molecule, the “co-localization of MDC1/Aprataxin to the damaged DNA” value in the assay with MDC1/Aprataxin is “dramatically decrease in the co-localization of MDC1/Aprataxin”. Also, the “levels of LC3-II” value in the assay with LC3-II (A549, 10 μM complex 18 h, without NAC) is on record as 2.3 folds; with LC3-II (A549, 5 mM NAC 2 h pretreatment then 10 μM complex 18 h), 1.5 folds. Also, the “level of LC3-II” value with LC3-II (A549, 10 μM, 24 h) is listed as 2.5 folds. In addition, the colony formation entry in assay [1] was “significantly reduced colony formation”. For the same molecule, the “intracellular GSH levels” value in the assay with A549 cancer cells is given as “did significantly reduce”.

The values are drawn from paper PMC5458179, “Oxidative DNA double strand breaks and autophagy in the antitumor effect of sterically hindered platinum(II) complexes in NSCLCs” (Oncotarget, 2017).
